From patent US20060216253A1, “Whitening cosmetics containing morus alba extracts” (Time and Cross, Inc., priority 2005, published 2006)

Tests used:
[1] = test system: melan-a cell line; test: Cell viability (MTT assay) of melan-a cell line; format: cell-based
Procedure: (§1) Melan-a cells were grown in 10 mL of RPMI 1640 medium supplemented with antibiotics, 10% fetal bovine serum (FBS), and 20 nM TPA. The cell suspension was inoculated in a 24-well plate (10^5 cells/mL) and the cells were allowed to completely adhere to the plate for 24 hr. Test samples dissolved in DMSO were added to the plate and incubated at 37° C. for 72 hr in a CO2 incubator. The culture medium was then thoroughly removed and the cells were isolated through trypsin treatment. The suspensions were then centrifuged for 5 min to collect cells, which were then treated with 5% trichloroacetic acid (TCA), stirred and centrifuged to precipitate the melanin. Melanin was washed with PBS and dissolved in 1 N NaOH. Absorbance at 475 nm was measured. Melanin concentration was determined from a standard concentration curve of synthetic melanin (SIGMA Co., USA).
(§2) We used the MTT assay to determine the percentage of viable cells. After cultivation was completed, a solution of MTT was added to the cultivation solution and the mixture was incubated at 37° C. for 4 hr. After incubation, culture medium was thoroughly removed, and the residue was treated with DMSO (Dimethyl sulfoxide) and shaken for 20 min. The optical density at 580 nm was measured by an ELISA microplate reader.

[2] = molecular target: Mushroom Tyrosinase; test: Inhibitory effects on mushroom tyrosinase (dopachrome, OD490, 15 min); format: biochemical; conditions: for IC50: 37° C., 15 min, L-tyrosine substrate
Procedure: (§3) L-Tyrosine, the substrate for tyrosinase, was dissolved in 50 mM sodium phosphate buffer (pH6.8) to prepare a solution of 0.1 mg/mL L-tyrosine. […] 100 μL of the L-tyrosine solution was introduced into a test tube, and 100 μL of 50 mM sodium phosphate buffer (pH6.8) with or without test samples were added thereto, and then 10 μL of 200 U/mL tyrosinase were mixed and incubated at 37° C. for 15 min.
The amount of dopachrome in the reaction mixture was determined spectrophotmetrically using absorbance measurement at 490 nm.

[3] = test system: murine melanoma B16 cells; test: Melanin production in murine melanoma B-16 cells; format: cell-based; conditions: for Melanin production (%): B16 cells, 3 days; for inhibitory effects on melanin production (in words): any of the concentrations assayed
Procedure: (§4) The melanoma cell line was grown in DMEM culture medium containing 4.5 g of glucose/l, 10% fetal bovine serum and 1% antibiotic agent and cultivated at 37° C. under a condition of 5% CO2. The cell suspension was inoculated in a 50 mL T-flask (3×10^5 cells/mL) and the cells were allowed to completely adhere to the plate for 24 hr. Then, test samples diluted in DMEM medium at concentrations of 1, 5, 10, 50, and 100 μg/mL were added to the cultivated cells, and the mixture was cultivated at 5% CO2 and 37° C. for 3 days. After cultivation, culture medium was thoroughly removed and the cells were isolated via trypsin treatment. The suspensions were then centrifuged for 5 min to collect cells. The obtained cells were treated with 5% trichloroacetic acid (TCA), stirred and centrifuged. The precipitated melanin was washed with phosphate buffered saline (PBS), and treated with 1 N NaOH to dissolve the melanin therein. Absorbance at 475 nm was measured. Melanin concentration was determined from a standard concentration curve of synthetic melanin (SIGMA Co., USA).

[4] = test system: melan-a cell line; test: Melanin production in melan-a cell line; format: cell-based; conditions: melan-a cells; for Melanin production (%): 72 hr; for inhibitory effects on melanin production (in words): any of the concentrations assayed
Procedure: as §1

[5] = test system: murine melanoma B16 cells; test: Cell viability (MTT assay) of murine melanoma B-16 cells; format: cell-based
Procedure: as §4, §2

[6] = test system: Mushroom Tyrosinase; test: Extended duration of mushroom tyrosinase inhibition (up to 24 hours); format: biochemical; conditions: for reaction time until loss of tyrosinase inhibitory activity: 37° C., FIG. 3
Procedure: as §3
Using the experimental conditions described in the Mushroom Tyrosinase experiment described above, the reaction mixtures, containing various concentrations from 1 μg/mL to 50 μg/mL of the agents assayed, were incubated at 37° C. and spectrophotometric measurements of dopachrome were made at time intervals of up to 24 hours.

[7] = test system: melanocytes; test: Microscopic observation of pigmentation of confluent melanocyte monolayer; format: cell-based; conditions: cell line not specified
From the text: The pigmentation of a confluent monolayer of melanocytes is visible microscopically, as the cells contain black melanin pigment.

SMILES	Cell viability (%) ([1]; melan-a cells, 1 μg/mL, MTT)	Cell viability (%) ([1]; melan-a cells, 5 μg/mL, MTT)	Cell viability (%) ([1]; melan-a cells, 10 μg/mL, MTT)	Cell viability (%) ([1]; melan-a cells, 50 μg/mL, MTT)	Cell viability (%) ([1]; melan-a cells, 100 μg/mL, MTT)	IC50 [2]	Melanin production (%) ([3]; 1 μg/mL)	Melanin production (%) ([3]; 5 μg/mL)	Melanin production (%) ([3]; 10 μg/mL)	Melanin production (%) ([3]; 50 μg/mL)	Melanin production (%) ([3]; 100 μg/mL)	inhibitory effects on melanin production (in words) ([3]; melanoma B-16 cells)	Melanin production (%) ([4]; 1 μg/mL)	Melanin production (%) ([4]; 5 μg/mL)	Melanin production (%) ([4]; 10 μg/mL)	Melanin production (%) ([4]; 50 μg/mL)	Melanin production (%) ([4]; 100 μg/mL)	inhibitory effects on melanin production (in words) [4]	Cell viability (%) ([5]; B16 cells, 1 μg/mL, MTT)	Cell viability (%) ([5]; B16 cells, 5 μg/mL, MTT)	also measured
OC[C@H]1O[C@@H](Oc2ccc(O)cc2)[C@H](O)[C@@H](O)[C@@H]1O [Arbutin, arbutin]	104.2 ± 7.2%	105.2 ± 8.3%	100.7 ± 5.0%	98.3 ± 7.7%	93.8 ± 5.6%	145000 nM	99.4 ± 2.1%	100.8 ± 4.5%	103.2 ± 1.9%	98.9 ± 8.2%	98.2 ± 6.9%	did not show inhibitory effects on melanin production	104.2 ± 3.2%	103.7 ± 4.6%	102.0 ± 5.7%	100.4 ± 4.0%	99.5 ± 7.2%	did not show inhibitory effects on melanin production	102.4 ± 5.3%	100.1 ± 7.8%	Cell viability (%) ([5]; B16 cells, 10 μg/mL, MTT): 98.5 ± 6.3%; Cell viability (%) ([5]; B16 cells, 50 μg/mL, MTT): 96.6 ± 8.0%; Cell viability (%) ([5]; B16 cells, 100 μg/mL, MTT): 93.2 ± 5.6%; reaction time until loss of tyrosinase inhibitory activity ([6]; 2 μg/mL): loses activity in about one hour; reaction time until loss of tyrosinase inhibitory activity ([6]; 5 μg/mL): loses activity in about one hour
O=c1cc(CO)occ1O [Kojic acid, kojic acid]	95.3 ± 8.0%	96.8 ± 4.7%	95.1 ± 9.0%	84.2 ± 8.2%	80.5 ± 8.3%		102.4 ± 4.7%	98.2 ± 7.1%	96.5 ± 3.7%	94.1 ± 5.2%	91.6 ± 7.1%	did not show inhibitory effects on melanin production	103.4 ± 5.4%	100.5 ± 8.2%	99.4 ± 7.1%	95.1 ± 6.7%	92.4 ± 8.0%	did not show inhibitory effects on melanin production	95.2 ± 8.3%	97.2 ± 7.6%	Cell viability (%) ([5]; B16 cells, 10 μg/mL, MTT): 96.2 ± 5.0%; Cell viability (%) ([5]; B16 cells, 50 μg/mL, MTT): 86.7 ± 3.4%; Cell viability (%) ([5]; B16 cells, 100 μg/mL, MTT): 81.7 ± 8.5%; reaction time until loss of tyrosinase inhibitory activity ([6]; 2 μg/mL): loses activity within two hours; reaction time until loss of tyrosinase inhibitory activity ([6]; 5 μg/mL): within five hours
Oc1cc(O)cc(/C=C/c2ccc(O)cc2O)c1 [Oxyresveratrol, oxyresveratrol]						2400 nM	94.3 ± 7.7%	90.8 ± 4.4%	87.5 ± 6.9%	57.3 ± 8.1%	19.5 ± 8.2%		95.1 ± 3.1%	90.2 ± 6.4%	88.5 ± 7.4%	60.3 ± 9.1%	20.6 ± 4.9%				Cell viability (%) ([1]; mouse, 72 h, 1 μg/mL): 99.0 ± 5.8%; Cell viability (%) ([1]; mouse, 72 h, 5 μg/mL): 96.9 ± 7.9%; Cell viability (%) ([1]; mouse, 72 h, 10 μg/mL): 94.7 ± 4.2%; Cell viability (%) ([1]; mouse, 72 h, 50 μg/mL): 68.5 ± 5.5%; Cell viability (%) ([1]; mouse, 72 h, 100 μg/mL): 27.3 ± 7.8%; inhibitory effect on mushroom tyrosinase (in words) ([2]; FIGS. 1 and 2): the most potent inhibitors of mushroom tyrosinase; reduction in melanin production ([3]; melanoma B-16 cells, 100 μg/mL): 80.5%; pigmentation of treated cells observed microscopically [7]: Reduced pigmentation; reduction in melanin production ([4]; 100 μg/mL): 79.4%; Cell viability (%) ([5]; mouse, 3 days, 1 μg/mL): 99.5 ± 5.4%; Cell viability (%) ([5]; mouse, 3 days, 5 μg/mL): 97.4 ± 5.9%; Cell viability (%) ([5]; mouse, 3 days, 10 μg/mL): 95.3 ± 7.6%; Cell viability (%) ([5]; mouse, 3 days, 50 μg/mL): 66.2 ± 8.3%; Cell viability (%) ([5]; mouse, 3 days, 100 μg/mL): 23.1 ± 4.8%; inhibition of tyrosinase activity after 24 hours ([6]; 24 hours incubation, even at the lower concentrations tested, FIG. 4): about 90%; IC50 ([6]; read-out: IC50 for tyrosinase inhibition after 24 hours incubation, 24 hours incubation): 2600 nM
